Drawing on patent US20200247812A1 (Integral Biosciences Private Limited, priority 2018, published 2020), this text covers IC50 for 2 compounds.

The subject of assay [1] is MV-4-11. The experiment in a line: Cell viability assay (resazurin), MV-4-11. In kind it is cell-based. The settings on record: Homo sapiens, MV4-11, 72-144 hr. Here is the method: (§1) Different cell lines such as pancreatic, (MIA PaCa-2; ATCC®CRL-1420™ & and Panc-1; CRL-1469™), liver carcinoma (HepG2; ATCC® HB-8065™), lung epithelial carcinoma (A549; ATCC® CCL-185™) and others were seeded in their respective medium (DMEM, Cat #10569044, MEM, Cat #41090036; RPMI, Cat #22400089; all with 10% FBS, Gibco, ThermoFisher) at a cell count of 3000 cells per 100 μl per well in a 96 well edge plate (167425; ThermoFisher). Cells were allowed to grow at 37° C. for 24 hr in 5% CO2 (culture conditions) in a Nuaire incubator (humidified). Serially diluted compounds (100 μl) were added to the culture plate 24 hr later and the cultures were further incubated in culture conditions for specified time depending on doubling time of specific cell line (ranging from 72-144 hr). Experiment was terminated at the completion of incubation time with the drug by replacing the medium with 100 μl of 1 mM of resazurin (R7017; Sigma) prepared in respective culture medium and the plates were further incubated in culture conditions for 4 hr. Fluorescence was then measured using a multimodal plate reader (Biotek Synergy Neo) at an excitation wavelength of 535 nm and emission wavelength of 590 nm to obtain relative fluorescence units. Data analysis was done by subtracting the background fluorescence (only medium blank) value from each reading and then normalizing with the vehicle control (DMSO treated cells) to obtain percent survival/proliferation. Percent survival at different doses was used to calculate IC50 by fitting the curve to the “four-parameter variable slope logistic model” using Prism Graph Pad.
(Resazurin is reduced to fluorescent resorufin, in cell work by metabolically active cells.)

In assay [2] the test system is A427. Briefly: Cell viability assay (resazurin), A427. The conditions noted are these: Homo sapiens, A-427, 72-144 hr. In kind it is cell-based. Here is the method:
as §1

The test system of assay [3] is HepG2. Briefly: Cell viability assay (resazurin), HepG2. In kind it is cell-based. The conditions noted are these: Homo sapiens, 72-144 hr. Here is the method: as §1
Assay [4] has as its target T1, ALK 5 (Homo sapiens, UniProt P36897).
T1 sequence (P36897 34-503): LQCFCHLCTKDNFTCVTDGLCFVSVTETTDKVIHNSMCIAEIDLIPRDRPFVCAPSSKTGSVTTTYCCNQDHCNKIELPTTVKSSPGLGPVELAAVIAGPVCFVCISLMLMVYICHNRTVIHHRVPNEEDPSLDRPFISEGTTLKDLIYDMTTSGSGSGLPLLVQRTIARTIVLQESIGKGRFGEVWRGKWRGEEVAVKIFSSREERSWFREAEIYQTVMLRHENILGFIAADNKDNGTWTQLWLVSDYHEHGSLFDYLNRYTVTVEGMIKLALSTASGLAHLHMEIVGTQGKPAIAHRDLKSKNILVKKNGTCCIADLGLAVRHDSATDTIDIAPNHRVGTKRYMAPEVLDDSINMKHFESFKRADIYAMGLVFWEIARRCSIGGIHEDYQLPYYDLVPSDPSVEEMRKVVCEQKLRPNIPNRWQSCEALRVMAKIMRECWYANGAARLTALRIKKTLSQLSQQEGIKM
The experiment in a line: In vitro kinase assay (ALK5 IC50, LanthaScreen Terbium labeled TR-FRET). The settings on record: TGF-β kinase 6 nM, ATP 10 μM, read-out: Enzyme Activity ALK 5 IC50. In kind it is biochemical. Put shortly: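 LanthaScreen Tb TR-FRET: ALK5 (6 nM) preincubated 10 min with 3-fold diluted compounds, then 10 μM ATP and 200 nM fluorescent PolyGT substrate added for 1 h at room temperature. Stopped with EDTA/Tb antibody; 520/495 nm emission read. IC50 from four-parameter fit versus DMSO and no-enzyme controls.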
A general note: TR-FRET usually uses a lanthanide donor and a delayed reading to cut background.

The test system of assay [5] is mouse splenocytes. Briefly: Mouse splenocyte viability assay (CD3e/CD28 activated, resazurin). In kind it is cell-based. The conditions noted are these: CD3e/CD28 activated Balb/c splenocytes, 72 hr. Here is the method:
IC50 values of compounds for determining viability in CD3e/CD28 activated mouse splenocytes isolated from Balb/c mice cultured in RPMI, Cat #22400089; with 10% FBS, Gibco, ThermoFisher). Mouse splenocytes (2×10^5 cells/well) were activated with Anti-mouse CD3e (2.5 μg/ml, coated overnight at 4° C.; Cat #14-0032-82, eBioscience) and then incubated with serial dilutions of compounds (3 fold, 8 point dose response starting at 30 μM) for 30 min at 37° C., 5% CO2 in an incubator (cell culture conditions) prior to treating them with Anti-mouse CD28 (0.1 μg/ml soluble; Cat #16-0281-82, eBiosciences). Splenocytes were further incubated under cell culture conditions for 72 hr following which experiment was terminated by replacing the medium with 100 μl of 1 mM of resazurin (R7017; Sigma) prepared in respective culture medium and the plates were further incubated in culture conditions for 4 hr. Fluorescence was then measured using a multimodal plate reader (Biotek Synergy Neo) at an excitation wavelength of 535 nm and emission wavelength of 590 nm to obtain relative fluorescence units. Data analysis was done by subtracting the background fluorescence (only medium blank) value from each reading and then normalizing with the average of vehicle control (DMSO treated cells) to obtain percent survival/proliferation. […]

As for `CC(C)c1[nH]c(=O)c(-c2cc(Cl)ccc2F)cc1Nc1ccnc2[nH]ccc12` [Compound 1.50, 5-((1H-pyrrolo[2,3-b]pyridin-4-yl)amino)-3-(5-chloro-2-fluorophenyl)-6-isopropylpyridin-2(1H)-one], the 50% inhibitory concentration (IC50) in assay [1] was 0.7 µM; in assay [2] it was 3.55 µM; in assay [3] it was over 30 µM; in assay [4], at most 500 nM; in assay [5], over 30 µM.

In the case of `CC(=O)Nc1cc(Nc2cc(-c3cc(Cl)ccc3F)c(=O)[nH]c2C(C)C)ccn1` [Compound 1.48, N-(4-((5-(5-chloro-2-fluorophenyl)-2-isopropyl-6-oxo-1,6-dihydropyridin-3-yl)amino)pyridin-2-yl)acetamide], the IC50 was 19.9 µM in assay [1]; over 30 µM in assay [2]; over 30 µM in assay [3]; at most 500 nM in assay [4]; over 30 µM in assay [5].

One may read the IC50 as the concentration that inhibits the measured activity by half.
